Experimental data taken from patent US7034013B2 (priority 2001, dated 2006).
In brackets after ≈: the same amount, converted by molar mass. Where two headings read alike, the source gives them in different places.

Columns and labels:
[1] = in the absence of a solubilizing agent; cited from earlier work
[2] = intravenous injection of a therapeutic dose; cited from earlier work
physchem = settings: water, solubility in water
[3] = for concentration of uncomplexed propofol in solution / concentration of uncomplexed propofol in solution, % of the total: binding constant 3800 M^−1
hemolysis = settings: in concentrations typically used to solubilize pharmaceutical formulations; FIG. 1 (Thompson 1997); cited from earlier work
[4] = CAPTISOL cyclodextrin 14.4% w/v (0.0665M)
[5] = CAPTISOL cyclodextrin 50% w/v (0.231M)

Compound	solubility in water	water solubility [1]	time to induction of anesthesia from the start of injection [2]	solubility (physchem)	concentration of uncomplexed propofol in solution [3, 4]	concentration of uncomplexed propofol in solution, % of the total [3, 4]	concentration of uncomplexed propofol in solution [3, 5]	concentration of uncomplexed propofol in solution, % of the total [3, 5]	CAPTISOL® cyclodextrin concentration required to raise aqueous propofol from 0.15 mg/mL to 10 mg/mL ([3]; propofol 10 mg/mL)	hemolytic behavior (hemolysis)
CC(C)c1cccc(C(C)C)c1O [propofol, 2,6-diisopropylphenol]	150 µg/mL (≈ 841 µM)	approximately 0.154 mg/mL	≤ 40 s	~150 µg/mL (≈ 841 µM)	~0.00124 M	about 2.21%	~0.000084 M	about 0.15%		
Sulfobutyl Ether-β-Cyclodextrin [CAPTISOL® cyclodextrin]									15 % w/v	essentially no hemolytic behavior
